What was measured:
E. coli RP437 [1] = assay: Growth studies (OD600) of planktonic E. coli; format: cell-based, Escherichia coli; conditions: for toxicity / growth inhibition of E. coli (in words): OD600 over 24 h, 1-300 μM as stated in the sentence
Method: The toxicity of the SHLs and BF8 at a range of concentrations (1, 10, 25, 50, 100, 200 and 300 μM) was evaluated against E. coli RP437 to determine whether these small molecules elicit their inhibition effect through a toxic mechanism. […] The effect induced by SHLs at 200 μM, the inhibitory concentration at which maximum biofilm inhibition occurs was interesting to observe.
The toxicity profile of BF8 48 would in turn allow a comparison to the library of SHLs. Parallel growth studies using BF8 48 and vinyl-SHL 3 treated and untreated control cultures in 96-well plates were performed. Inhibitor concentrations used during growth studies ranged from […]-300 μM.
An overnight culture of E. coli RP437 grown in LB media (OD600 of 1.0) containing streptomycin (10 μg/mL) was subsequently sub-cultured to an OD600 of 0.04 (1:100 dilution with LB media). To each well in the solvent resistant polypropylene or polystyrene-based 96-well microtiter plates were added varying concentrations of the synthetic molecules respectively (1, 10, 25, 50, 100, 200 and 300 μM). Further, to each of the wells containing the known concentrations of synthetic molecules was added 200 μL of the sub-cultured bacteria and the contents in each well were gently mixed. Control wells comprised of untreated bacterial culture (four replicates) and the LB media (four replicates). The microtiter plates were then covered and allowed to incubate at 37° C. for 24 hours with shaking at 200 rpm. The OD600 values in each well was measured at 0, 2, 4, 6, 8, 12, 24 h after inoculation using Biotek ELx800 absorbance plate reader using Gen5™ data analysis software. For each synthetic compound, the growth experiments were repeated twice and each of the concentrations was tested over four replicates.

E. coli RP437 [2] = assay: Static biofilm inhibition assay (crystal violet, 96-well plate); format: cell-based, Escherichia coli
Source text: A primary objective was to test the ability of SHLs to inhibit biofilm formation against E. coli RP437. […] Viable controls were required that would allow us to measure and compare the activity of SHLs against known biofilm inhibitors and naturally occurring AI-1 signal molecules. […] The activity of this class of molecule is presumably similar or even marginally higher than that of brominated furanone (BF8 48) (56%).
For the present invention, the E. coli RP437 biofilms were allowed to develop in a 96-well plate in the absence or presence of SHLs. After 24 hours, the planktonic bacteria and remaining media were removed and the crystal violet was introduced in the wells. The bacterial biofilm being formed at the air/liquid interface on the inside wall of the well is stained readily by crystal violet. After removing the excess crystal violet and repeatedly washing the wells with water, followed by ethanol solubilization of the dye, allows quantification of the amount of biofilm by spectrophotometry (OD600). […] We believe that the observed biofilm inhibition activity cannot be directly attributed to any predominant structural feature inherent in the SHLs. Rather, the small deviations in the structures of the SHLs and their effect on biofilm formation could be a result of the nature of non-covalent forces that arise during SHLs presumed binding within the receptor active site.
An overnight culture of E. coli RP437 grown in LB media (OD600 of 1.0) containing streptomycin (10 μg/mL) was subsequently sub-cultured to an OD600 of 0.04 (1:100 dilution with LB media). To each well in the solvent resistant polypropylene or polystyrene-based 96-well microtiter plates were added 200 μL of the sub-cultured bacteria respectively. To each of the wells containing the bacterial cultures varying concentrations of the synthetic molecules was added and the contents in each well were gently mixed. Control wells comprised of untreated bacterial culture (four replicates) and the LB media (four replicates). The microtiter plates were then covered and wrapped in a Saran wrap and allowed to incubate at 37° C. for 24 hours without shaking. After that time, the microbial medium in each well was discarded and the remaining biofilm that was formed during incubation was stained with 225 μL of a 0.1% crystal violet solution and allowed to incubate at room temperature for 30 minutes. After the incubation period, the crystal violet was discarded and the wells were gently washed twice with water (230-250 μL) and allowed to air dry for 15-20 minutes. For the purpose of solubilizing the remaining crystal violet that had stained the biofilm present in the interior of the 96-well plates, a 250 μL solution of 95% ethanol was used. After the addition of 95% ethanol, the contents of each well were mixed thoroughly and allowed to sit for 15-20 minutes. Finally, the biofilm formed was quantified by transferring 100 μL of the ethanol solution into a fresh polystyrene microtiter dish that was subsequently read by an absorbance plate reader (A600). After elimination of background absorbance, the percentage inhibition was calculated by dividing the amount of absorbed crystal violet in wells that contained the synthetic compound by the amount of absorbed crystal violet in wells that contained bacteria only (control). Biofilm assays for each synthetic compound were repeated two to three times and each concentration considered for inhibition studies were tested over four replicates.

[3] = E. coli RP437, 200 μM, 24 h, crystal violet

SMILES | toxicity / growth inhibition of E. coli (in words) (E. coli RP437 [1]) | inhibition of biofilm formation (E. coli RP437 [2]; [3]) | E. coli growth relative to untreated sample (E. coli RP437 [1]; 200 μM, at 4 h, OD600) | toxicity / growth inhibition of E. coli (in words) (E. coli RP437 [1]; listed as Vinyl-SHL 3) | biofilm inhibition (in words) (E. coli RP437 [2]; [3]) | biofilm inhibition values used in the ratio 26/57×100 (E. coli RP437 [2]; E. coli RP437, unit not given)
CC1=C(Br)/C(=C/Br)OC1=O [BF8 48, reference compound] | marked attenuation of E. coli growth | 56% |  |  |  | 
CCCCOc1c(NC2CCCC2)c(=O)c1=O [butoxy-SCPA 46] | no inhibition of E. coli growth up to 300 μM | 42% |  |  |  | 
C=Cc1c(NC2CCOC2=O)c(=O)c1=O (stereo not drawn) [vinyl-SHL 3] | less toxicity compared to BF8 48 |  | 77% | after 8 h, E. coli RP437 growth reverts back normally | greatest inhibition of biofilm | 57

— patent US8940911B2, “Squarylated lactones inhibitors for bacterial biofilm formation” (Syracuse University, priority 2012, dated 2015)
